Reference: patent US7037682B2, “In vitro activity assay for human hepatitis B virus (HBV) DNA polymerase, and its use for screening for inhibitors of HBV DNA polymerase” (Government of the Republic of Singapore, priority 1999, dated 2006)
“Also recorded” adds a separate entry of the source.

What follows are compounds tested on wild type human HBV DNA polymerase (assay: In vitro priming activity assay of human HBV DNA polymerase (anti-priming testing, nitrocellulose membrane filtration)). Settings: in vitro translated wild type enzyme in wheat germ lysate; [α-32P] dTTP; corresponding nucleotide replaced with the analog; 30° C. for 30 min; FIG. 6.
Assay type: biochemical, human hepatitis B virus (HBV)
Description: Unless otherwise noted, the polymerase activity assay was conducted in solution containing 100 mM Tris HCl (pH 7.5), 10 mM MgCl2, 30 mM NaCl, 10% glycerol, 4 mM dithiothreitol, 100 μM of each unlabeled deoxyribonucleotide triphosphates (dATP, dCTP and dGTP) and 5 μCi [α-^32P] dTTP. The reactions were incubated at 30° C. for 30 min, after which time a 5 μl aliquot was added to 85 μl of tricine sodium dodecyl sulfate-polyacrylamide gel electrophoresis (SDS-PAGE) sample buffer (Novex, U.S.A.), and 10 μl were analyzed on 10% SDS-PAGE. Following electrophoresis, gels were fixed by soaking in 10% methanol plus 10% acetic acid and dried under vacuum. Dried gels were exposed to X-ray film and signals quantified by laser densitometry.
Screening for inhibitors of human HBV DNA polymerase would provide novel therapeutic agents for HBV infection, as effective inhibition of the polymerase activity will lead to inhibition of HBV viral replication. The simplified activity assay reported in the present invention would allow faster analysis of the inhibitory effects of newly found molecules on DNA polymerase of variant HBV carrying mutations on the major surface antigen. Briefly, a candidate inhibitor was first incubated with the wild type human HBV DNA polymerase that was PCR amplified and in vitro translated as reported in the present invention. The incubation was in the presence of [α-^32P] dTTP and with other conditions identical as above-mentioned. Its inhibitory effect may be determined either by laser densitometry following SDS-PAGE analysis, or by measuring the amount of radiolabeled HBV DNA polymerase bound to nitrocellulose membrane after filtration. […] Further assay on the potential inhibitory effect derived from the above-mentioned assay may then be extended to other systems such as HBV-producing cell lines and transgenic animal model.
Depending on the type of label used, detection of the labeled hybrid HBV DNA polymerase product may be achieved by any appropriate means. Generally this may include a step of separating labeled mononucleotide from labeled human HBV DNA polymerase. […] When the label is a radiolabel as is the case in the simplified assay reported in the present invention, then the amount of radioactivity bound to the filter may be quantified using a plate reading scintillation counter.
In the present invention, the following nucleotide analogs capable of inhibiting the HBV DNA polymerase activity may be assayed for their anti-priming activity. […] The remaining radiolabeled human HBV DNA polymerase bound to the nitrocellulose membrane is then measured quantified using a plate reading scintillation counter.
`Nc1ncnc2c1ncn2[C@H]1CC[C@@H](COP(=O)(O)OP(=O)(O)OP(=O)(O)O)O1` [ddATP] was tested, and the “anti-priming effect (radiolabeled human HBV DNA polymerase remained on nitrocellulose membrane, as measured by cpm, compared with the control)” value was “no obvious anti-priming effect; also recorded: no anti-priming activity is observed”.
With `Nc1ccn([C@H]2CC[C@@H](COP(=O)(O)OP(=O)(O)OP(=O)(O)O)O2)c(=O)n1` [ddCTP] the “anti-priming effect (radiolabeled human HBV DNA polymerase remained on nitrocellulose membrane, as measured by cpm, compared with the control)” value was “inhibitory effect is observed; also recorded: significantly lower amount”.
For `Nc1nc2c(ncn2[C@H]2CC[C@@H](COP(=O)(O)OP(=O)(O)OP(=O)(O)O)O2)c(=O)[nH]1` [ddGTP], the “anti-priming effect (radiolabeled human HBV DNA polymerase remained on nitrocellulose membrane, as measured by cpm, compared with the control)” value was “inhibitory effect is observed; also recorded: significantly lower amount”.
In the case of `Cc1cn([C@H]2CC[C@@H](COP(=O)(O)OP(=O)(O)OP(=O)(O)O)O2)c(=O)[nH]c1=O` [ddTTP], the “anti-priming effect (radiolabeled human HBV DNA polymerase remained on nitrocellulose membrane, as measured by cpm, compared with the control)” value is reported as “no obvious anti-priming effect; also recorded: no anti-priming activity is observed”.
